Values of other authors, collected in patent publication US20090117146A1 (priority 2005, published 2009).

Test system: adenyl cyclase
Conditions: follicles of scalp hair

## C[C@]12CCC(=O)C[C@@H]1CC[C@@H]1[C@@H]2CC[C@]2(C)[C@@H](O)CC[C@@H]12 [dihydrotestosterone]
  effect on adenyl cyclase activity: inhibits adenyl cyclase activity

## C[C@]12CC[C@H]3[C@@H](CCC4=CC(=O)CC[C@@]43C)[C@@H]1CC[C@@H]2O [testosterone]
  effect on adenyl cyclase activity: does not
